Results: US20130184302A1, “METHODS FOR TREATING IRRITABLE BOWEL SYNDROME (IBS) AND INFECTIONS” (priority 2011, published 2013)

Test system: subjects with d-IBS
Assay: Adequate relief of IBS symptoms and bloating (weekly yes/no questions), rifaximin BID study in d-IBS
Format: in vivo, human
Details: for Percentage of Subjects with Number of Weeks with Adequate Relief of Bloating Symptoms / Percentage of Subjects with Number of Weeks with Adequate Relief of IBS Symptoms: RFX 550 mg BID, ITT; for Adequate Relief of Bloating: Success / Adequate Relief of IBS symptoms: Success: end of the Treatment Phase
Procedure: This example relates to a study of rifaximin in subjects with d-IBS. […] There were two measures of efficacy assessed. Subjects were questioned on the relief of overall IBS symptoms and bloating. […] The analyses defined success as a “yes” response to questions regarding adequate relief.
All subpopulations in the study responded to therapy. Baseline severity was determined using 7-point Lickert scales during screening for Abdominal Pain/Discomfort and Bloating, and the number, type (normal, hard, loose) and urgency of bowel movements.
Duration of effect was assessed in a follow-up period. Subjects that responded in the 4 week treatment period were followed for an additional 3 months.
The effect of treatment on the percentage of subjects who reported adequate relief of IBS and bloating symptoms for at least two of the final three weeks during the treatment phase (Weeks 1 to 4) is shown in Tables 5-7 and FIGS. 4-6 below.
The study assessed the effect over 12 weeks of follow-up on long-term adequate relief. Subjects who had adequate relief by Week 4 and remained symptom-free at Week 5 were followed during the post-treatment phase and shown in FIGS. 1 and 2. Superiority to placebo was maintained during the 12 weeks post-treatment follow-up. Results for IBS symptoms were RFX 550 mg BID 62.3% versus placebo 49.2%, and RFX 550 mg BID 59.3% versus 50.9% for placebo for the symptom of bloating through week 16. In assessing the follow-up data, there was statistical significance (p<0.05) of bloating and IBS symptoms for RFX 550 mg BID versus placebo.
Two measures of efficacy were assessed independently. The first was the proportion of subjects who provided a ‘yes’ response to the weekly SGA question: “In the past 7 days, have you had adequate relief of your IBS symptoms? (yes/no)”. The second endpoint was the proportion of subjects who provide a ‘yes’ response to the weekly individual symptom question: “In the past 7 days, have you had adequate relief of your symptom of bloating? (yes/no)”. Durability was based on the proportion of subjects that had adequate relief over the entire treatment phase.
It is reported herein that the severity of baseline symptoms of abdominal pain and bloating influenced the response to rifaximin treatment. The co-primary endpoints in this analysis assessed weekly yes/no responses to questions regarding adequate relief of global IBS symptoms and IBS-associated bloating. Severity of baseline IBS symptoms was evaluated as a potential confounder of clinical response and was categorized as mild/moderate or severe based on a mean score of ≦4 vs. >4 (on a 7-point scale) for bloating and abdominal pain.
The Weekly yes/no responses to questions regarding adequate relief of global IBS symptoms and IBS-associated bloating were assessed. Clinical response was defined as adequate relief for 2 of the final 3 treatment weeks (wk 2, 3, or 4). Severity of baseline IBS symptoms was evaluated as a potential confounder of clinical response and was categorized as mild/moderate or severe based on a mean score of ≦4 versus >4 (on a 7-point scale (0=not bothersome; 6=very bothersome)) for bloating and abdominal pain.

Q: `CO[C@H]1/C=C/O[C@@]2(C)Oc3c(C)c(O)c4c(O)c(c5c(nc6cc(C)ccn65)c4c3C2=O)NC(=O)/C(C)=C\C=C\[C@H](C)[C@H](O)[C@@H](C)[C@@H](O)[C@@H](C)[C@H](OC(C)=O)[C@@H]1C` [Rifaximin, (2S,16Z,18E,20S,21S,22R, 23R,24R,25S,26S,27S,28E)-5,6,21,23,25 Pentahydroxy-27-methoxy-2,4,11,16,20,22,24,26-octamethyl-2,7-(epoxypentadeca-(1,11,13)trienimino) benzofuro (4,5-e) pyrido(1,2,-a) benzimidazole-1,15(2H)-dione,25-acetate] was tested. Which “Percentage of Subjects with Number of Weeks with Adequate Relief of Bloating Symptoms” value (“Percentage of Subjects … of Bloating Symptoms” for short) (0 weeks) did it give?
A: 35%

Q: What about the “Percentage of Subjects with Number of Weeks with Adequate Relief of IBS Symptoms” value (“Percentage of Subjects … of IBS Symptoms” below) (0 weeks) of the same compound?
A: 33%

Q: And the “Percentage of Subjects … of Bloating Symptoms” value (1 week)?
A: 14%

Q: What about the “Percentage of Subjects … of IBS Symptoms” value (1 week) of the same compound?
A: 11%

Q: What about the “Percentage of Subjects … of Bloating Symptoms” value (2 weeks) of the same compound?
A: 15%

Q: And the “Percentage of Subjects … of IBS Symptoms” value (2 weeks)?
A: 15%

Q: What about the “Percentage of Subjects … of Bloating Symptoms” value (3 weeks) of the same compound?
A: 20%

Q: What about the “Percentage of Subjects … of IBS Symptoms” value (3 weeks) of the same compound?
A: 23%

Q: What about the “Percentage of Subjects … of Bloating Symptoms” value (4 weeks) of the same compound?
A: 14%

Q: What about the “Percentage of Subjects … of IBS Symptoms” value (4 weeks) of the same compound?
A: 16%

Q: And the “Treatment effect, Bloating” value (Age <65)?
A: 6.8%

Q: And the “Treatment effect, IBS Sx” value (Age <65)?
A: 6.9%

Q: And the “Treatment effect, Bloating” value (Age ≧65)?
A: 3.2%

Q: What about the “Treatment effect, IBS Sx” value (Age ≧65) of the same compound?
A: 19.1%

Q: And the “Treatment effect, Bloating” value (Diabetes History N)?
A: 7.4%

Q: And the “Treatment effect, IBS Sx” value (Diabetes History N)?
A: 9.5%

Q: What about the “Treatment effect, Bloating” value (Diabetes History Y) of the same compound?
A: −5.6%

Q: And the “Treatment effect, IBS Sx” value (Diabetes History Y)?
A: −12.7%

Q: What about the “Treatment effect, Bloating” value (Disease Duration 10-20 y) of the same compound?
A: 11.7%

Q: And the “Treatment effect, IBS Sx” value (Disease Duration 10-20 y)?
A: 20.1%

Q: What about the “Treatment effect, Bloating” value (Disease Duration >20 y) of the same compound?
A: 35.1%

Q: What about the “Treatment effect, IBS Sx” value (Disease Duration >20 y) of the same compound?
A: 46.6%

Q: What about the “Treatment effect, Bloating” value (Disease Duration ≦10 y) of the same compound?
A: 2.8%

Q: And the “Treatment effect, IBS Sx” value (Disease Duration ≦10 y)?
A: 1.8%

Q: And the “Adequate Relief of Bloating: Failure” value (Female, RFX 275 2w)?
A: 52 (64.2%)

Q: What about the “Adequate Relief of IBS symptoms: Failure” value (Female, RFX 275 2w) of the same compound?
A: 46 (56.8%)

Q: What about the “Adequate Relief of Bloating: Success” value (Female, RFX 275 2w) of the same compound?
A: 29 (35.8%)

Q: What about the “Adequate Relief of IBS symptoms: Success” value (Female, RFX 275 2w) of the same compound?
A: 35 (43.2%)

Q: What about the “Adequate Relief of Bloating: Failure” value (Female, RFX 550 2w) of the same compound?
A: 74 (54.0%)

Q: And the “Adequate Relief of IBS symptoms: Failure” value (Female, RFX 550 2w)?
A: 66 (48.2%)

Q: And the “Adequate Relief of Bloating: Success” value (Female, RFX 550 2w)?
A: 63 (46.0%)

Q: What about the “Adequate Relief of IBS symptoms: Success” value (Female, RFX 550 2w) of the same compound?
A: 71 (51.8%)

Q: And the “Adequate Relief of Bloating: Failure” value (Female, RFX 550 4w)?
A: 44 (57.9%)

Q: What about the “Adequate Relief of IBS symptoms: Failure” value (Female, RFX 550 4w) of the same compound?
A: 42 (55.3%)

Q: And the “Adequate Relief of Bloating: Success” value (Female, RFX 550 4w)?
A: 32 (42.1%)

Q: What about the “Adequate Relief of IBS symptoms: Success” value (Female, RFX 550 4w) of the same compound?
A: 34 (44.7%)

Q: And the “Adequate Relief of Bloating: Failure” value (Female, RFX 1100 2w)?
A: 45 (61.6%)

Q: And the “Adequate Relief of IBS symptoms: Failure” value (Female, RFX 1100 2w)?
A: 44 (60.3%)

Q: And the “Adequate Relief of Bloating: Success” value (Female, RFX 1100 2w)?
A: 28 (38.4%)

Q: What about the “Adequate Relief of IBS symptoms: Success” value (Female, RFX 1100 2w) of the same compound?
A: 29 (39.7%)

Q: What about the “Treatment effect, Bloating” value (Gender F) of the same compound?
A: 3.9%

Q: What about the “Treatment effect, IBS Sx” value (Gender F) of the same compound?
A: 3.5%

Q: What about the “Treatment effect, Bloating” value (Gender M) of the same compound?
A: 13.6%

Q: What about the “Treatment effect, IBS Sx” value (Gender M) of the same compound?
A: 21%

Q: And the “Adequate Relief of Bloating: Failure” value (Male, RFX 275 2w)?
A: 8 (57.1%)

Q: What about the “Adequate Relief of IBS symptoms: Failure” value (Male, RFX 275 2w) of the same compound?
A: 9 (64.3%)

Q: What about the “Adequate Relief of Bloating: Success” value (Male, RFX 275 2w) of the same compound?
A: 6 (42.9%)

Q: And the “Adequate Relief of IBS symptoms: Success” value (Male, RFX 275 2w)?
A: 5 (35.7%)

Q: And the “Adequate Relief of Bloating: Failure” value (Male, RFX 550 2w)?
A: 29 (53.7%)

Q: And the “Adequate Relief of IBS symptoms: Failure” value (Male, RFX 550 2w)?
A: 25 (46.3%)

Q: What about the “Adequate Relief of Bloating: Success” value (Male, RFX 550 2w) of the same compound?
A: 25 (46.3%)

Q: What about the “Adequate Relief of IBS symptoms: Success” value (Male, RFX 550 2w) of the same compound?
A: 29 (53.7%)

Q: What about the “Adequate Relief of Bloating: Failure” value (Male, RFX 550 4w) of the same compound?
A: 16 (72.7%)

Q: What about the “Adequate Relief of IBS symptoms: Failure” value (Male, RFX 550 4w) of the same compound?
A: 15 (68.2%)

Q: What about the “Adequate Relief of Bloating: Success” value (Male, RFX 550 4w) of the same compound?
A: 6 (27.3%)

Q: And the “Adequate Relief of IBS symptoms: Success” value (Male, RFX 550 4w)?
A: 7 (31.8%)
